From US20250026778A1 (TIUMBIO CO., LTD., priority 2021, published 2025) come the findings set out here.

The target in one experiment is T1, his-galectin-3 (Homo sapiens, UniProt P17931).
T1 construct: purchased Abcam
T1 sequence (P17931 whole entry): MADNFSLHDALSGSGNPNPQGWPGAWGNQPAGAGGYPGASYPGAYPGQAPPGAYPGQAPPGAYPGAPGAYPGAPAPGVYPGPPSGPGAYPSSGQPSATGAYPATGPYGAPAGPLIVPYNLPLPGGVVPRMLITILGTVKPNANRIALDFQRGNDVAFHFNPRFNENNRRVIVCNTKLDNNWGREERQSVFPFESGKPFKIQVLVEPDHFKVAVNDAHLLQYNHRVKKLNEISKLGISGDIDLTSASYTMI
Briefly: TR-FRET assay (in vitro galectin-3 binding inhibitory activity test). Conditions: Table 1; compound at 20 μM; 60 nM his-galectin-3, 15 nM biotin-ASF. As for the experimental part:
TR-FRET Assay (In Vitro Galectin-3 Binding Inhibitory Activity Test)
TR-FRET assay was performed in ½ Area Plate-96 (PerkinElmer). Final concentrations of components in the assay were 60 nM his-galectin-3 (Abcam), 15 nM biotin-ASF (Axxora), 2 nM Mab anti-6×His Tb (Cisbio) and 20 nM SA-d2 (Cisbio). The reaction was performed in a buffer containing 25 mM HEPES, 100 mM NaCl, 0.005% Tween 20 and 0.05% BSA. 20 μL his-galectin-3 and 1 μL compound were mixed first, and then 20 μL biotin-ASF, 5 μL anti-His Tb and 5 μL SA-d2 were added in order. After incubation for at least 3.5 hours at RT, TR-FRET signals were measured at 615/665 nm […] wavelengths using a VICTOR Nivo (PerkinElmer). The positive control used DMSO instead of the compound, and the negative control excluded ASF-biotin. N-acetyl-D-lactosamine (LacNAc), an endogenous ligand unit of galectin-3, was evaluated together as a control substance to compare galectin-3 binding inhibitory activity.
For the molecule `COc1ccc2c(c1)CCC1(O2)O[C@H](CO)[C@H](O)[C@H](n2cc(-c3cc(F)c(F)c(F)c3)nn2)[C@H]1O` (single isomer, unassigned) [Compound A10, (3′R,4'S,5′R,6′R)-6′-(hydroxymethyl)-6-methoxy-4′-(4-(3,4,5-trifluorophenyl)-1H-1,2,3-triazol-1-yl)-3′,4′,5′,6′-tetrahydrospiro[chromane-2,2′-pyran]-3′,5′-diol], the “% Inhibitory activity (at 20 μM)” value was “D (inhibition rate was less than 25%)”.

The experiment is the same for the next values; noted with them: Table 1; compound at 20 μM; 60 nM his-galectin-3, 15 nM biotin-ASF; read-out: % Inhibitory activity (at 20 μM).
As for `OC[C@H]1O[C@@]2(CCCO2)[C@H](OCc2ccc3c(c2)OCO3)[C@@H](n2cc(-c3cc(F)c(F)c(F)c3)nn2)[C@H]1O` [Compound A35, (5S,7R,8R,9S,10R)-10-(benzo[d][1,3]dioxol-5-ylmethoxy)-7-(hydroxymethyl)-9-(4-(3,4,5-trifluorophenyl)-1H-1,2,3-triazol-1-yl)-1,6-dioxaspiro[4.5]decan-8-ol], the inhibition at 20 µM was in the range of 25 to 50%.
On the same count and under the same terms, to `O=C(CC1CCCC1)N[C@@H]1CCO[C@]12O[C@H](CO)[C@H](O)[C@H](n1cc(-c3cc(F)c(F)c(F)c3)nn1)[C@H]2O` [Compound A108, 2-cyclopentyl-N-((4R,5S,7R,8R,9S,10R)-8,10-dihydroxy-7-(hydroxymethyl)-9-(4-(3,4,5-trifluorophenyl)-1H-1,2,3-triazol-1-yl)-1,6-dioxaspiro[4.5]decan-4-yl)acetamide] belongs 25 to 50%; to `OC[C@H]1O[C@]2(OCC[C@H]2NCc2cccc(F)c2)[C@H](O)[C@@H](n2cc(-c3cc(F)c(F)c(F)c3)nn2)[C@H]1O` [Compound A62, (4R,5S,7R,8R,9S,10R)-4-((3-fluorobenzyl)amino)-7-(hydroxymethyl)-9-(4-(3,4,5-trifluorophenyl)-1H-1,2,3-triazol-1-yl)-1,6-dioxaspiro[4.5]decane-8,10-diol], 50 to 75%.
The same measure, in the same setting: under `O=C(CO[C@@H]1[C@@H](n2cc(-c3cc(F)c(F)c(F)c3)nn2)[C@@H](O)[C@@H](CO)O[C@@]12CCCO2)c1ccccc1` [Compound A20, 2-(((5S,7R,8R,9S,10R)-8-hydroxy-7-(hydroxymethyl)-9-(4-(3,4,5-trifluorophenyl)-1H-1,2,3-triazol-1-yl)-1,6-dioxaspiro[4.5]decan-10-yl)oxy)-1-phenylethanone] stands 25 to 50%; under `OC[C@H]1O[C@]2(OCC[C@H]2NCc2cc(Cl)ccc2O)[C@H](O)[C@@H](n2cc(-c3cc(F)c(F)c(F)c3)nn2)[C@H]1O` [Compound A126, (4R,5S,7R,8R,9S,10R)-4-((5-chloro-2-hydroxybenzyl)amino)-7-(hydroxymethyl)-9-(4-(3,4,5-trifluorophenyl)-1H-1,2,3-triazol-1-yl)-1,6-dioxaspiro[4.5]decane-8,10-diol], 25 to 50%.

Staying with this experiment, now noted: Table 2; compound at 20 μM; 60 nM his-galectin-3, 15 nM biotin-ASF; read-out: % Inhibitory activity (at 20 μM).
With `O=C(N[C@@H]1CCO[C@]12O[C@H](CO)[C@H](O)[C@H](n1cc(-c3cc(F)c(F)c(F)c3)nn1)[C@H]2O)c1ccc(Cl)c2ccccc12` [Compound A172, 4-chloro-N-((4R,5S,7R,8R,9S,10R)-8,10-dihydroxy-7-(hydroxymethyl)-9-(4-(3,4,5-trifluorophenyl)-1H-1,2,3-triazol-1-yl)-1,6-dioxaspiro[4.5]decan-4-yl)-1-naphthamide], the inhibition at 20 µM was over 75%.
Still for that read-out and setting: under `O=C(c1ccccn1)N1CCC[C@]2(C1)O[C@H](CO)[C@H](O)[C@H](n1cc(-c3cc(F)c(F)c(F)c3)nn1)[C@H]2O` [Compound A188, ((2R,3R,4S,5R,6R)-3,5-dihydroxy-2-(hydroxymethyl)-4-(4-(3,4,5-trifluorophenyl)-1H-1,2,3-triazol-1-yl)-1-oxa-8-azaspiro[5.5]undecan-8-yl)(pyridin-2-yl)methanone] stands under 25%; under `O=C(N[C@@H]1CCO[C@]12O[C@H](CO)[C@H](O)[C@H](n1cc(-c3cc(F)c(F)c(F)c3)nn1)[C@H]2O)c1ccc2c(Cl)cccc2c1` [Compound A195, 5-chloro-N-((4R,5S,7R,8R,9S,10R)-8,10-dihydroxy-7-(hydroxymethyl)-9-(4-(3,4,5-trifluorophenyl)-1H-1,2,3-triazol-1-yl)-1,6-dioxaspiro[4.5]decan-4-yl)-2-naphthamide], 25 to 50%; under `OC[C@H]1O[C@]2(OCC[C@H]2/N=C\c2c(O)ccc3ccccc23)[C@H](O)[C@@H](n2cc(-c3cc(F)c(F)c(F)c3)nn2)[C@H]1O` [Compound A202, (4R,5S,7R,8R,9S,10R)-7-(hydroxymethyl)-4-((Z)-((2-hydroxynaphthalen-1-yl)methylene)amino)-9-(4-(3,4,5-trifluorophenyl)-1H-1,2,3-triazol-1-yl)-1,6-dioxaspiro[4.5]decane-8,10-diol], under 25%.
On the same count and under the same terms, to `O=C(N[C@@H]1CCO[C@]12O[C@H](CO)[C@H](O)[C@H](n1cc(-c3cc(F)c(F)c(F)c3)nn1)[C@H]2O)c1cccc2cccnc12` [Compound A244, N-((4R,5S,7R,8R,9S,10R)-8,10-dihydroxy-7-(hydroxymethyl)-9-(4-(3,4,5-trifluorophenyl)-1H-1,2,3-triazol-1-yl)-1,6-dioxaspiro[4.5]decan-4-yl)quinoline-8-carboxamide] belongs 50 to 75%.

The same experiment, now with this note: read-out: % Inhibitory activity (at 20 μM), Table 1; compound at 20 μM; 60 nM his-galectin-3, 15 nM biotin-ASF.
As to `O=C1CCCC2(N1)O[C@H](CO)[C@H](O)[C@H](n1cc(-c3cc(F)c(F)c(F)c3)nn1)[C@H]2O` (stereo partly drawn) [Compound A88, (2R,3R,4S,5R)-3,5-dihydroxy-2-(hydroxymethyl)-4-(4-(3,4,5-trifluorophenyl)-1H-1,2,3-triazol-1-yl)-1-oxa-7-azaspiro[5.5]undecan-8-one], the inhibition at 20 µM was under 25%.
`OC[C@H]1O[C@@]2(CCCO2)[C@H](OCc2cccc(F)c2F)[C@@H](n2cc(-c3cc(F)c(F)c(F)c3)nn2)[C@H]1O` [Compound A65, (5S,7R,8R,9S,10R)-10-((2,3-difluorobenzyl)oxy)-7-(hydroxymethyl)-9-(4-(3,4,5-trifluorophenyl)-1H-1,2,3-triazol-1-yl)-1,6-dioxaspiro[4.5]decan-8-ol]: the inhibition at 20 µM is under 25%.
Turning to `CC(O[C@@H]1[C@@H](n2cc(-c3cc(F)c(F)c(F)c3)nn2)[C@@H](O)[C@@H](CO)O[C@@]12CCCCO2)C(=O)O` (stereo partly drawn) [Compound A55, 2-(((2R,3R,4S,5R,6S)-3-hydroxy-2-(hydroxymethyl)-4-(4-(3,4,5-trifluorophenyl)-1H-1,2,3-triazol-1-yl)-1,7-dioxaspiro[5.5]undecan-5-yl)oxy)propanoic acid], the inhibition at 20 µM was in the range of 50 to 75%.

Staying with this experiment, now noted: read-out: % Inhibitory activity (at 20 μM), Table 2; compound at 20 μM; 60 nM his-galectin-3, 15 nM biotin-ASF.
In the case of `O=C(N[C@@H]1CCO[C@]12O[C@H](CO)[C@H](O)[C@H](n1cc(-c3cc(F)c(F)c(F)c3)nn1)[C@H]2O)c1ccccc1Oc1ccccc1` [Compound A171, N-((4R,5S,7R,8R,9S,10R)-8,10-dihydroxy-7-(hydroxymethyl)-9-(4-(3,4,5-trifluorophenyl)-1H-1,2,3-triazol-1-yl)-1,6-dioxaspiro[4.5]decan-4-yl)-2-phenoxybenzamide], the inhibition at 20 µM fell in the range of 25 to 50%.
Same read-out and setting: to `OC[C@H]1O[C@@]2(CCCN(c3ccncn3)C2)[C@H](O)[C@@H](n2cc(-c3cc(F)c(F)c(F)c3)nn2)[C@H]1O` [Compound A226, (2R,3R,4S,5R,6R)-2-(hydroxymethyl)-8-(pyrimidin-4-yl)-4-(4-(3,4,5-trifluorophenyl)-1H-1,2,3-triazol-1-yl)-1-oxa-8-azaspiro[5.5]undecane-3,5-diol] belongs under 25%.

The same experiment, now with this note: read-out: % Inhibitory activity (at 20 μM), Table 3, found values; compound at 20 μM; 60 nM his-galectin-3, 15 nM biotin-ASF.
Regarding `OC[C@H]1O[C@@]2(CCCO2)[C@H](OCc2cccc(F)c2F)[C@@H](n2cc(-c3cc(F)c(F)c(F)c3)nn2)[C@H]1O` [Compound A65, (5S,7R,8R,9S,10R)-10-((2,3-difluorobenzyl)oxy)-7-(hydroxymethyl)-9-(4-(3,4,5-trifluorophenyl)-1H-1,2,3-triazol-1-yl)-1,6-dioxaspiro[4.5]decan-8-ol], the inhibition at 20 µM amounted to 17.3%.
On the same count and under the same terms, under `CC(O[C@@H]1[C@@H](n2cc(-c3cc(F)c(F)c(F)c3)nn2)[C@@H](O)[C@@H](CO)O[C@@]12CCCCO2)C(=O)O` (stereo partly drawn) [Compound A55, 2-(((2R,3R,4S,5R,6S)-3-hydroxy-2-(hydroxymethyl)-4-(4-(3,4,5-trifluorophenyl)-1H-1,2,3-triazol-1-yl)-1,7-dioxaspiro[5.5]undecan-5-yl)oxy)propanoic acid] stands 60%.
